Where a name gives a salt, the structure may show the parent alone.

This is an account of results in patent publication US8637536B2, “Pyrimidinone compounds for use in the treatment of diseases or conditions mediated by Lp-PLA2” (Glaxo Group Limited, priority 2010, dated 2014).

The target in this test is T1, Lp-PLA2 from plasma (pooled human plasma) (Homo sapiens, UniProt Q13093).
T1 construct: 8 μL pooled human plasma; from tissue; host or cells: pooled human plasma
T1 sequence (Q13093 22-441): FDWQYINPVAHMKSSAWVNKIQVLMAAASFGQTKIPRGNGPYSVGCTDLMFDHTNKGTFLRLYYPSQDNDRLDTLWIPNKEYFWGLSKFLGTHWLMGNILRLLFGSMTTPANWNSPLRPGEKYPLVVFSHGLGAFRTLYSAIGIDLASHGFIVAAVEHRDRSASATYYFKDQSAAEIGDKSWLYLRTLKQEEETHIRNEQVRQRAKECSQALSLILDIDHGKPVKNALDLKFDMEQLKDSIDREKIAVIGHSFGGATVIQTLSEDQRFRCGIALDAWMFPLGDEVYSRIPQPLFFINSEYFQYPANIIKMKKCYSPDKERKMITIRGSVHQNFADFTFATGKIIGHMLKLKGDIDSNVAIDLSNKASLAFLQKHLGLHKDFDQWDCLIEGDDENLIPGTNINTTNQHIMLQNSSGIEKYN
Nature of the test: Lp-PLA2 human plasma assay (Thio-PAF assay). The test is classed as biochemical. The settings on record: text thresholds, read-out: pIC50 values in the thio-PAF assay (converted). The text has this:
(3) Lipoprotein-Associated Phospholipase A2 (Lp-PLA2) Human Plasma Assay (Also Referred to as “Thio-PAF Assay”)
The human plasma assay utilizes a thioester analog of PAF (phosphatidylcholine), where hydrolysis yields to the formation of a phospholipid containing a free thiol group. The amount of thiol is quantitated continuously by reacting with CPM (7-diethylamino-3-(4′-maleimidylphenyl)-4-methylcoumarin), a maleimide which increases in fluoresence after Michael addition of thiols. This assay may detect the activity of Lp-PLA2 from plasma, as determined by specific inhibition by Lp-PLA2 inhibitors.
The thio-PAF assay was run as a quenched 15 μL assay. Compounds source plate was prepared by making 1:3 (by volume) serial dilution of the compounds into pure DMSO on 384-well microplate. 0.01 μL of compounds on compound source plate were transferred to 384 well Greiner 784076 (black) low-volume plates by ECHO liquid dispenser. 8 μL pooled human plasma, which was previously aliquoted and frozen, was added. Plates were centrifuged for 10 sec at 500 rpm. After 30 minutes preincubation, 2 μL of substrate (2.5 mM thio-PAF, 3.2 mM NEM (N-ethylmaleimide) [made fresh daily in DMSO], and 32 μM CPM [from a DMSO stock] in assay buffer of 50 mM HEPES, pH7.4, 150 mM NaCl, 1 mM CHAPS was added to 384 well Greiner 784076 (black) low-volume plates by BRAVO liquid handling station. Plates were centrifuged for 10 sec at 500 rpm. Plate was covered to protect from light and incubated for 2 min at room temperature. Reaction was quenched with 5 μL of 5% aqueous trifluoroacetic acid (TFA). Plates were covered to protect from light and incubated for 40 min at room temperature. Plates were read at ex: 380/em: 485 using-Envision microplate reader. PIC50 data, curve and QC analysis was conducted by using XLFit module in Excel.
On to `COc1ncc(Cc2c[nH]c(OCCc3ccc(Oc4cc(Cl)cc(C(F)(F)F)c4)cc3)nc2=O)cn1` [E165, 2-{[2-(4-{[3-chloro-5-(trifluoromethyl)phenyl]oxy}phenyl)ethyl]oxy}-5-{[2-(methyloxy)-5-pyrimidinyl]methyl}-4(1H)-pyrimidinone], for which the IC50 is ≤ 100 nM.

On to `COc1ncc(Cc2cn(C)c(CCc3ccc(Oc4ccc(Cl)c(C(F)(F)F)c4)cc3)nc2=O)cn1` [E3, 2-[2-(4-{[4-Chloro-3-(trifluoromethyl)phenyl]oxy}phenyl)ethyl]-1-methyl-5-{[2-(methyloxy)-5-pyrimidinyl]methyl}-4(1H)-pyrimidinone], for which the IC50 is ≤ 1000 nM.

For `Cn1cc(Cc2cn(C)c(SCCc3ccc(Oc4cccc(C(F)(F)F)c4)c(C#N)c3)nc2=O)cn1` [E92, 5-[2-({1-methyl-5-[(1-methyl-1H-pyrazol-4-yl)methyl]-4-oxo-1,4-dihydro-2-pyrimidinyl}thio)ethyl]-2-{[3-(trifluoromethyl)phenyl]oxy}benzonitrile, trifluoroacetic acid salt], the IC50 is ≤ 100 nM.

On to `Cn1cc(Cc2cn(C)c(SCCc3ccc(Oc4ccc(Cl)c(C(F)(F)F)c4)cc3)nc2=O)cn1` [E113, 2-{[2-(4-{[4-chloro-3-(trifluoromethyl)phenyl]oxy}phenyl)ethyl]thio}-1-methyl-5-[(1-methyl-1H-pyrazol-4-yl)methyl]-4(1H)-pyrimidinone], for which the IC50 is ≤ 100 nM.

Regarding `O=c1nc(OCCc2ccc(Oc3ccc(Cl)c(OC(F)(F)F)c3)cc2)[nH]cc1Cc1cncnc1` [E177, 2-(4-(4-chloro-3-(trifluoromethoxy)phenoxy)phenethoxy)-5-(pyrimidin-5-ylmethyl)pyrimidin-4(1H)-one], the IC50 was ≤ 100 nM.

Turning to `Cn1cc(Cc2cncnc2)c(=O)nc1SCc1ccc(Oc2ccc(C(F)(F)F)cn2)c(C#N)c1` [E105, 5-({[1-methyl-4-oxo-5-(5-pyrimidinylmethyl)-1,4-dihydro-2-pyrimidinyl]thio}methyl)-2-{[5-(trifluoromethyl)-2-pyridinyl]oxy}benzonitrile], the IC50 is ≤ 100 nM.

On to `N#Cc1cc(CSc2nc(=O)c(Cc3cncnc3)c[nH]2)ccc1Oc1ccc(C(F)(F)F)cn1` [E73, 5-({[4-oxo-5-(5-pyrimidinylmethyl)-1,4-dihydro-2-pyrimidinyl]thiol}methyl)-2-{[5-(trifluoromethyl)-2-pyridinyl]oxy}benzonitrile], for which the IC50 is ≤ 100 nM.

As for `O=c1ncc(Cc2c[nH]c(NCCc3ccc(Oc4ccc(Cl)c(C(F)(F)F)c4)cc3)nc2=O)c[nH]1` [E209, 2-{2-[4-(4-chloro-3-trifluoromethyl-phenoxy)-phenyl]ethylamino}-5-(2-oxo-1,2-dihydro-pyrimidin-5-ylmethyl)-1H-pyrimidin-4-one], the IC50 was ≤ 1000 nM.

As for `COc1ncc(Cc2c[nH]c(OCCc3cc(F)c(Oc4cnc(C(F)(F)F)nc4)c(F)c3)nc2=O)cn1` [E169, 2-(3,5-difluoro-4-((2-(trifluoromethyl)pyrimidin-5-yl)oxy)phenethoxy)-5-((2-methoxypyrimidin-5-yl)methyl)pyrimidin-4(1H)-one], the IC50 is ≤ 100 nM.

For `O=c1nc(OCCc2ccc(Oc3ccc(Cl)c(C(F)(F)F)c3)cc2)[nH]cc1Cc1cnc(C(F)(F)F)nc1` [E126, 2-{[2-(4-{[4-chloro-3-(trifluoromethyl)phenyl]oxy}phenyl)ethyl]oxy}-5-{[2-(trifluoromethyl)-5-pyrimidinyl]methyl}-4(1H)-pyrimidinone], the IC50 is ≤ 1000 nM.

For `COc1ncc(Cc2c[nH]c(NCCc3ccc(Oc4ccc(Cl)c(C(F)(F)F)c4)cc3)nc2=O)cn1` [E9, 2-{[2-(4-{[4-Chloro-3-(trifluoromethyl)phenyl]oxy}phenyl)ethyl]amino}-5-{[2-(methyloxy)-5-pyrimidinyl]methyl}-4(1H)-pyrimidinone], the IC50 was ≤ 100 nM.

As for `COc1ncc(Cc2c[nH]c(OCCc3cc(F)c(Oc4ccc(Cl)c(C(F)(F)F)c4)c(F)c3)nc2=O)cn1` [E176, 2-{[2-(4-{[4-chloro-3-(trifluoromethyl)phenyl]oxy}-3,5-difluorophenyl)ethyl]oxy}-5-{[2-(methyloxy)-5-pyrimidinyl]methyl}-4(1H)-pyrimidinone], the IC50 was ≤ 100 nM.

Take `COc1ncc(Cc2c[nH]c(NCCc3ccc(Oc4ccc(C(F)(F)F)cn4)cc3)nc2=O)cn1` [E186, 5-(2-methoxy-pyrimidin-5-ylmethyl)-2-{2-[4-(5-trifluoromethyl-pyridin-2-yloxy)phenyl]-ethylamino}-1H-pyrimidin-4-one]: the IC50 was ≤ 1000 nM.

Consider `O=c1nc(NCCc2ccc(Oc3cccc(C(F)(F)F)c3)cc2)[nH]cc1Cc1cncnc1` [E185, 5-Pyrimidin-5-ylmethyl-2-{2-[4-(3-trifluoromethyl-phenoxy)-phenyl]-ethylamino}-1H-pyrimidin-4-one], for which the IC50 was ≤ 1000 nM.

Turning to `CN(CCc1ccc(Oc2cccc(C(F)(F)F)c2)cc1)c1nc(=O)c(Cc2cncnc2)c[nH]1` [E187, 2-(Methyl-{2-[4-(3-trifluoromethyl-phenoxy)-phenyl]-ethyl}-amino)-5-pyrimidin-5-ylmethyl-1H-pyrimidin-4-one], the IC50 is ≤ 1000 nM.

For the molecule `Cc1ncc(Cc2c[nH]c(NCCc3ccc(Oc4ccc(Cl)c(C(F)(F)F)c4)c(C#N)c3)nc2=O)cn1` [E211, 2-(4-Chloro-3-trifluoromethyl-phenoxy)-5-{2-[5-(2-methyl-pyrimidin-5-ylmethyl)-4-oxo-1,4-dihydro-pyrimidin-2-ylamino]-ethyl}-benzonitrile], the IC50 was ≤ 1000 nM.

On to `COc1ncc(Cc2c[nH]c(NCCc3ccc(Oc4cccc(C(F)(F)F)c4)cc3)nc2=O)cn1` [E193, 5-(2-methoxy-pyrimidin-5-ylmethyl)-2-{2-[4-(3-trifluoromethyl-phenoxy)phenyl]-ethylamino}-1H-pyrimidin-4-one], for which the IC50 is ≤ 1000 nM.

Take `Cn1cc(Cc2cncnc2)c(=O)nc1CCc1ccc(Oc2ccc(Cl)c(C(F)(F)F)c2)cc1` [E4, 2-[2-(4-{[4-Chloro-3-(trifluoromethyl)phenyl]oxy}phenyl)ethyl]-1-methyl-5-(5-pyrimidinylmethyl)-4(1H)-pyrimidinone]: the IC50 was ≤ 1000 nM.

Turning to `O=c1nc(OCCc2cc(F)c(Oc3cnc(C(F)(F)F)nc3)c(F)c2)[nH]cc1Cc1cncnc1` [E168], the IC50 was ≤ 100 nM.

On to `Cn1cc(Cc2cncnc2)c(=O)nc1SCc1ccc(Oc2ccc(F)c(C(F)(F)F)c2)c(C#N)c1` [E88, 2-{[4-fluoro-3-(trifluoromethyl)phenyl]oxy}-5-({[1-methyl-4-oxo-5-(5-pyrimidinylmethyl)-1,4-dihydro-2-pyrimidinyl]thio}methyl)benzonitrile], for which the IC50 is ≤ 100 nM.

On to `O=c1nc(NCCc2ccc(Oc3ccc(Cl)cc3)cc2)[nH]cc1Cc1cncnc1` [E194, 2-{2-[4-(4-Chloro-phenoxy)-phenyl]-ethylamino}-5-pyrimidin-5-ylmethyl-1H-pyrimidin-4-one], for which the IC50 was ≤ 1000 nM.

With `CCc1cn(C)c(OCCc2cc(F)c(Oc3ccc(Cl)c(C(F)(F)F)c3)c(F)c2)nc1=O` [E175, 2-{[2-(4-{[4-chloro-3-(trifluoromethyl)phenyl]oxy}-3,5-difluorophenyl)ethyl]oxy}-5-ethyl-1-methyl-4(1H)-pyrimidinone], the IC50 was ≤ 100 nM.

With `Cc1ncc(Cc2c[nH]c(NCCc3ccc(Oc4ccc(C(F)(F)F)c(Cl)c4)cc3)nc2=O)cn1` [E207, 2-{2-[4-(3-chloro-4-trifluoromethyl-phenoxy)-phenyl]ethylamino}-5-(2-methyl-pyrimidin-5-ylmethyl)-1H-pyrimidin-4-one], the IC50 was ≤ 1000 nM.

For `COc1ncc(Cc2c[nH]c(OCCc3ccc(Oc4ccc(C)c(F)c4)cc3)nc2=O)cn1` [E157, 2-[(2-{4-[(3-fluoro-4-methylphenyl)oxy]phenyl}ethyl)oxy]-5-{[2-(methyloxy)-5-pyrimidinyl]methyl}-4(1H)-pyrimidinone], the IC50 was ≤ 1000 nM.

`COc1ncc(Cc2c[nH]c(OCCc3ccc(Oc4ccc(Cl)c(OC(F)(F)F)c4)cc3)nc2=O)cn1` [E178, 2-(4-(4-chloro-3-(trifluoromethoxy)phenoxy)phenethoxy)-5-((2-methoxypyrimidin-5-yl)methyl)pyrimidin-4(1H)-one]: the IC50 was ≤ 100 nM.

In the case of `Cc1ncc(Cc2c[nH]c(NCCc3ccc(Oc4ccc(C(F)(F)F)cn4)cc3)nc2=O)cn1` [E208, 5-(2-methyl-pyrimidin-5-ylmethyl)-2-{2-[4-(5-trifluoromethyl-pyridin-2-yloxy)phenyl]ethylamino}-1H-pyrimidin-4-one], the IC50 is ≤ 1000 nM.
